Source: PMC3375280 (PLoS ONE, 2012)
Substitutions are numbered along the chain they refer to.

Experiments:
[1] = biological target: T1, wild-type (WT) AT1 receptor (Rattus norvegicus, UniProt P25095); assay: inositol phosphate (IP) production in COS1 cells expressing WT AT1 receptor; details: 1 µM compound, vs basal IP production
T1 sequence (P25095 1-359): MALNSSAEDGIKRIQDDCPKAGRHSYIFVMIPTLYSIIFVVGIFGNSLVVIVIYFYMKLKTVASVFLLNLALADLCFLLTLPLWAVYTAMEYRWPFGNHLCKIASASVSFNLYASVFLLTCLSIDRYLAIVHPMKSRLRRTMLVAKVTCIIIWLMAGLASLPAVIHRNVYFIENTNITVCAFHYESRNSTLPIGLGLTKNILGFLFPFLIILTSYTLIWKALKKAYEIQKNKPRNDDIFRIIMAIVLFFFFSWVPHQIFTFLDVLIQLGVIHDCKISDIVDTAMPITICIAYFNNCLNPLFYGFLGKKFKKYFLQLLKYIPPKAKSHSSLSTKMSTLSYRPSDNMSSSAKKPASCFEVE
Protocol: The test compounds were added 1 h before the measurement of IP.
The WT and mutant AT1 receptors were transiently transfected into COS1 cells using Lipofectamine 2000 liposomal reagent (Roche Applied Science) according to the manufacturer’s instructions.
Cells expressing the WT and mutant AT1 receptors were incubated for 30 minutes at 22°C with or without the indicated concentrations of ARBs. The cells were washed-out once with the use of excess cold HBSS, and used in an IP production study. Total soluble IP was measured by the perchloric acid extraction method, as described previously [16].

[2] = biological target: T2, AT1 C76A/V116C/C289A mutant receptor (Rattus norvegicus, UniProt P25095, C289A/C76A/V116C); assay: substituted cysteine accessibility mapping (SCAM), C76A/V116C/C289A; assay type: binding; parameters: key: Less and More indicate that the AT1 receptor is less or more accessible to the ligand pocket, respectively; Less and More indicate that the AT1 receptor is less or more accessible to the ligand pocket, respectively; No change; details: 1 µM ARB, […] MTSEA+, COS1 membranes
T2 construct: expressed in transfected cells; host or cells: COS1 cells (membranes)
T2 sequence (P25095 1-359 C76A/V116C/C289A): T1 sequence (P25095 1-359) with C76A, V116C, C289A
Excerpt: (§1) As we reported previously, the percentage (%) inhibition of ^125I-[Sar^1, Ile^8] AngII binding by methanethiosulphonate ethyl-ammonium (MTSEA^+) reagent was approximately 30% on AT1 receptor, since Cys^76 in TM2 was accessible to water within the ligand pocket. In addition, mechanical stretching increased the accessibility of Cys^289 by inducing a change in the conformation of TM7 [22]. To differentiate between single and multiple movements of one or more native cysteines, we created TM3 residues that were substituted with cysteine one at a time from […] to Phe^117 using the C76A/C289A mutant genetic background and evaluated each triple mutant for MTSEA sensitivity.
(§2) Figure 3 Changes in cysteine accessibility in COS1 cells expressing C76A/C289A mutant receptors in which the transmenbrane 3 residues from Ala^106 to Phe^117, except for position 113, were successively replaced by cysteine. 1 µM of ARBs, n=4–9, *p<0.05 vs. no treatment. #p<0.05 vs. C76A/C289A.
The SCAM method has been used to probe relative changes in the conformation of constitutively active AT1 receptor [20]–[22] and other GPCRs, [30] by validating the presence of Cys residues within the ligand pocket. […]

[3] = biological target: T1, wild-type (WT) AT1 receptor; parameters: expressed in transfected cells; host or cells: COS1 cells; details: previously reported; cited from earlier work
[4] = biological target: T3, AT1 C76A/S109C/C289A mutant receptor (Rattus norvegicus, UniProt P25095, C289A/C76A/S109C); assay: substituted cysteine accessibility mapping (SCAM), C76A/S109C/C289A; assay type: binding; parameters: key: Less and More indicate that the AT1 receptor is less or more accessible to the ligand pocket, respectively; Less and More indicate that the AT1 receptor is less or more accessible to the ligand pocket, respectively; No change; details: 1 µM ARB, […] MTSEA+, COS1 membranes
T3 construct: expressed in transfected cells; host or cells: COS1
T3 sequence (P25095 1-359 C76A/S109C/C289A): T1 sequence (P25095 1-359) with C76A, S109C, C289A
Excerpt: as §1, §2
(§3) The SCAM method has been used to probe relative changes in the conformation of constitutively active AT1 receptor [20]–[22] and other GPCRs, [30] by validating the presence of Cys residues within the ligand pocket. We used a highly reactive, sulfhydryl-specific reaction with methanethiosulfonyl ethyl-ammonium (MTSEA^+), which reacts a billion times faster with water-exposed and ionized Cys than with lipid-exposed and un-ionized Cys. In this reaction, a positively charged sulfonylmethylammonium group is added to a water-exposed Cys. Aliquots of cell membranes are incubated with or without ARBs for 20 min in phosphate buffer at room temperature. The membranes are then diluted with same buffer and centrifuged. After washout the cell membranes, the membranes are incubated with 2.5 mM MTSEA^+ at room temperature for 2 min in HEPES buffer (pH7.4). The Membranes are then diluted with same buffer to stop the reaction and centrifuged. One hundred µl aliquots were used to assay for ^125I-[Sar^1,Ile^8]Ang II binding. […]

[5] = biological target: T4, AT1 C76A/F117C/C289A mutant receptor (Rattus norvegicus, UniProt P25095, C289A/C76A/F117C); assay: substituted cysteine accessibility mapping (SCAM), C76A/F117C/C289A; assay type: binding; parameters: key: Less and More indicate that the AT1 receptor is less or more accessible to the ligand pocket, respectively; Less and More indicate that the AT1 receptor is less or more accessible to the ligand pocket, respectively; No change; details: 1 µM ARB, […] MTSEA+, COS1 membranes
T4 construct: expressed in transfected cells; host or cells: COS1 cells (membranes)
T4 sequence (P25095 1-359 C76A/F117C/C289A): T1 sequence (P25095 1-359) with C76A, F117C, C289A
Excerpt: as §1, §2, §3

| Pharmacological behaviour toward IP production (agonism / neutral antagonism / inverse agonism) [1] | Cysteine accessibility at Val116 compared to ligand (-) [2] | Cysteine accessibility at Ser109 compared to ligand (-) [4] | Cysteine accessibility at Ser109 compared to ligand (-) ([4]; listed as olmesartan) | Cysteine accessibility at Phe117 compared to ligand (-) [5] | Cysteine accessibility at Phe117 compared to ligand (-) ([5]; listed as olmesartan) | SMILES | Pharmacological behaviour toward IP production [3] |
| --- | --- | --- | --- | --- | --- | --- | --- |
| agonism | – | – | – | – | – | CCCc1nc(C(C)(C)O)c(C(N)=O)n1Cc1ccc(-c2cc(Cc3ccc(O)cc3)ccc2-c2nnn[nH]2)cc1 [R794847] | – |
| inverse agonist | No change | Less | less accessibility | More | greater accessibility | CCCc1nc(C(C)(C)O)c(C(=O)O)n1Cc1ccc(-c2ccccc2-c2nnn[nH]2)cc1 [Olmesartan, olmesartan, reference compound] | inverse agonism |
| neutral antagonist | No change | No change | – | No change | – | CCCc1nc(C(C)(C)O)c(C(N)=O)n1Cc1ccc(-c2ccccc2-c2nnn[nH]2)cc1 [R239470] | neutral antagonist |
